Experiments:
Type in all cases: in vivo, human
[1] = system: eyelashes; test: Randomized vehicle-controlled study: overall eyelash prominence by GEA scale; conditions: week 16; ITT; 0.03% solution once daily to upper eyelid margins (107/137); p<0.0001 vs vehicle
Protocol: The objective of this study was to evaluate the safety and efficacy of bimatoprost 0.03% solution once daily compared with vehicle in increasing overall eyelash prominence following dermal administration to the upper eyelid margins.
During the screening visit, each subject was assessed for inclusion/exclusion criteria. Qualifying subjects were randomly allocated in a 1:1 ratio to treatment with bimatoprost 0.03% solution or vehicle, to be applied to both upper eyelid margins once daily in the evening for 4 months.
Subjects applied study medication to the upper eyelid margins using the supplied, disposable, single-use-per-eye applicator once daily in the evening for 4 months. Subjects were instructed to dab or blot any excess study medication runoff on the area outside the upper eyelash margin with a tissue or other absorbent cloth; the upper lid margin was to feel evenly and lightly moist without runoff. Subjects were instructed not to apply study medication to the lower eyelash line. […]
For the primary efficacy endpoint, a clinical response was defined as at least a 1-grade increase in the GEA score from baseline at month 4 (week 16). […] The proportion of subjects with at least a 1-grade increase from baseline was summarized by a frequency table and analyzed by the Pearson's chi-square test for 2-by-2 tables at each visit. […]

[2] = Randomized vehicle-controlled study: intraocular pressure; conditions: eye as sampling unit
Protocol: Safety measurements collected during this study included adverse events, ophthalmic examination variables (iris color, IOP, visual acuity, biomicroscopy, and ophthalmoscopy), physical examination, vital signs, and pregnancy testing.
Iris color was recorded for each subject at every study visit. Iris color was grouped as light (blue, blue-gray, blue/gray-brown, green, green-brown, hazel, and other) and dark (brown and dark brown). If the “other” category contained black in the description, it was grouped as dark. IOP (measured at approximately the same time of day at each visit), visual acuity, and biomicroscopy data were collected at screening, week 1, and months 1, 2, 3, 4, and 5. Ophthalmoscopy (dilated) was performed at screening and month 4.
IOP measurements were collected twice for each eye. If the 2 measurements differed by more than 2 mmHg, a third measurement was taken on that eye. If 2 measurements were collected, the average of the 2 was recorded as the IOP for a particular eye; if a third measurement was collected, the median measurement was recorded as the IOP for that eye. As all subjects were treated bilaterally, the average of the subject's right and left eye IOP values was analyzed for each time point. In the case where data were collected for only 1 eye, the collected data served as the IOP for the subject at that time point. […] Within-group changes from baseline were analyzed by the paired t-test. All analyses were based on observed cases and no data imputations were performed.
All adverse events were summarized and analyzed by the following subgroups: age (<45, 45 to 65, and >65 years), gender, and race (Caucasian and non-Caucasian). This was performed for both the treatment and posttreatment periods. Analyses of IOP were stratified by 3 subgroups, according to baseline IOP (8 to 12 mm Hg, >12 to 15 mm Hg, and >15 mm Hg). These ranges were determined by taking the bottom tercile, middle tercile, and the top tercile of baseline IOPs. The sampling unit was the “eye” (ie, each subject contributed 2 data points). Within each of the subgroups, the number and percent of subjects with an IOP of ≦6 mmHg was summarized by treatment group and visit utilizing a frequency table and was analyzed by the Pearson's chi-square test or Fisher's exact tables for 2-by-2 tables for each visit. The sampling unit was the eye and not the subject. In addition, a scatterplot of baseline IOP versus final IOP for each treatment group was presented for the treatment period and post-treatment period.

[3] = system: eyebrows; test: Eyebrow growth after chemotherapy-induced eyebrow loss (Example 3); conditions: person, eyebrows lost after chemotherapy
Excerpt: A person participates in a clinical study for eyebrow growth. The patient has lost both their eyebrows as a result of recent treatments of chemotherapy. Bimatoprost 0.03% is applied along the eyebrow line of both eyes. After approximately 4 weeks, the person begins to experience eyebrow growth. […] The person is extremely satisfied with the results and no longer needs to apply make-up in place of real eyebrows.

- Intraocular pressure, Max ([2]; Week 12): 3.5 mmHg
- Intraocular pressure, Median ([2]; Week 12): −1.25 mmHg
- Intraocular pressure, Min ([2]; Week 12): −7.0 mmHg
- Intraocular pressure, Mean ([2]; Week 12, N 252): −1.54 mmHg
- Intraocular pressure, Max ([2]; Week 16): 6.0 mmHg
- Intraocular pressure, Median ([2]; Week 16): −1.50 mmHg
- Intraocular pressure, Min ([2]; Week 16): −7.5 mmHg
- Intraocular pressure, Mean ([2]; Week 16, N 252): −1.25 mmHg
- Intraocular pressure, Max ([2]; Week 20 (post-treatment)): 5.0 mmHg
- Intraocular pressure, Median ([2]; Week 20 (post-treatment)): −0.50 mmHg
- Intraocular pressure, Min ([2]; Week 20 (post-treatment)): −7.5 mmHg
- Intraocular pressure, Mean ([2]; Week 20 (post-treatment), N 262): −0.67 mmHg
SMILES: CCNC(=O)CCC/C=C\C[C@@H]1[C@@H](/C=C/[C@@H](O)CCc2ccccc2)[C@H](O)C[C@@H]1O [bimatoprost]
- Subjects with at least a 1-grade increase from baseline in overall eyelash prominence (GEA scale) [1]: 78.1%
- Eyebrow outcome following the study [3]: full, long eyebrows
- Time until eyebrow growth begins ([3]; applied along eyebrow line of both eyes): approximately 4 weeks

Reference: US20130030055A1, “COMPOSITIONS AND METHODS FOR TREATING HAIR LOSS, HAIR THINNING, AND HAIR COLOR LOSS” (priority 2010, published 2013)
